Among the test systems are SN12C; EKVX; SR; DU-145; U-251; OVCAR-3; SK-MEL-28; HOP-62; NCI-H522; SK-MEL-2; ACHN; BT-549; SNB-75; MDA-MB-435; SW-620; NCI-H23; UACC-257; OVCAR-4; HOP-92.
Common to all, as to assay: NCI anticancer screen, dose series, 48 h

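Interpolation was linear, between the two tested concentrations surrounding the appropriate level; five concentrations were tested over 48 hours in 96-well plates. GI50 marks 50% less growth.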 Calls of active or inactive are those of the source. No stated cut-off is given here; in the data, active = GI50 up to about 1.1 µM and inactive = higher.

Consider `N#CC1=C(N)OC2=C(CCCc3ccccc32)C1c1ccc([N+](=O)[O-])cc1` (configuration not stated), for which the GI50 in the assay with SN12C was 15.1 µM (inactive); in the assay on EKVX it was 13.8 µM (inactive); in the assay with SR, 10.9 µM (inactive); in the assay on DU-145, 10.1 µM (inactive); with U-251, 15.5 µM (inactive); with OVCAR-3, 13.5 µM (inactive). Besides, the GI50 in the assay with SK-MEL-28 was 15.8 µM (inactive); in the assay on HOP-62, 17.2 µM (inactive); in the assay on NCI-H522, 8.22 µM (inactive); in the assay on SK-MEL-2, 17.9 µM (inactive); in the assay on ACHN, 17.9 µM (inactive); in the assay on BT-549 it was 2.91 µM (inactive). Besides, the GI50 with SNB-75 is 55 µM (inactive); in the assay on MDA-MB-435 it was 15.9 µM (inactive); in the assay on SW-620 it was 13.6 µM (inactive); with NCI-H23, 15.2 µM (inactive); in the assay with UACC-257, 14.8 µM (inactive); in the assay with OVCAR-4 it was 15.8 µM (inactive). For the same compound, the GI50 with HOP-92 is 19.1 µM (inactive).
Consider `CC(NC1=CC(=O)c2ncccc2C1=O)C(O)c1ccccc1` (configuration not stated), for which the GI50 with SN12C is 5.18 µM (inactive); with EKVX, 12.6 µM (inactive); with SR it was 8.36 µM (inactive); in the assay with DU-145, 6.22 µM (inactive); in the assay on U-251, 2.61 µM (inactive); with OVCAR-3, 2.45 µM (inactive). Moreover, the GI50 with SK-MEL-28 was 3.32 µM (inactive); with HOP-62 it was 4.83 µM (inactive); in the assay with NCI-H522 it was 7.66 µM (inactive); in the assay on SK-MEL-2, 3.55 µM (inactive); in the assay on ACHN, 7 µM (inactive); in the assay on BT-549, 1.85 µM (inactive). Also, the GI50 with SNB-75 is 2.36 µM (inactive); with MDA-MB-435 it was 1.59 µM (inactive); in the assay on SW-620, 4.9 µM (inactive); in the assay with NCI-H23, 1.62 µM (inactive); with UACC-257, 1.91 µM (inactive); in the assay on OVCAR-4, 6.78 µM (inactive). The GI50 in the assay on HOP-92 is 13.2 µM (inactive).
For the compound `Cc1c(C(C)C)cc(OCCO)cc1C(C)C`, the GI50 was 30.2 µM (inactive) with SN12C; 31 µM (inactive) in the assay on EKVX; 26.7 µM (inactive) in the assay on SR; 73.6 µM (inactive) in the assay with DU-145; 40.6 µM (inactive) with U-251; 47.5 µM (inactive) in the assay on OVCAR-3. Also, the GI50 was 87.9 µM (inactive) in the assay with SK-MEL-28; 75.7 µM (inactive) in the assay on HOP-62; 25.9 µM (inactive) in the assay with NCI-H522; 23.9 µM (inactive) with SK-MEL-2; 51.4 µM (inactive) in the assay with ACHN; 37.2 µM (inactive) with BT-549. Moreover, the GI50 with SNB-75 is 23.9 µM (inactive); in the assay on MDA-MB-435 it was 31.5 µM (inactive); in the assay with SW-620 it was 71.9 µM (inactive); in the assay on NCI-H23, 42.3 µM (inactive); in the assay with UACC-257, 35.2 µM (inactive); with OVCAR-4, 33.5 µM (inactive). Further, in the assay with HOP-92, the GI50 was 19.8 µM (inactive).
Take `CC(=O)c1c(C)cc2cccc(OC3OC(CO)C(O)C(O)C3O)c2c1O.CC1OC(O)C(O)C(O)C1O` (configuration not stated): the GI50 in the assay on SN12C, in the assay on EKVX, in the assay on SR, in the assay with DU-145, with U-251 and in the assay on OVCAR-3 was > 100 µM (inactive) in each case. Also, the GI50 with SK-MEL-28, with HOP-62, with NCI-H522, with SK-MEL-2, in the assay with ACHN and with BT-549 was > 100 µM (inactive) throughout. For the same compound, the GI50 in the assay on SNB-75, in the assay on MDA-MB-435, in the assay on SW-620, in the assay with NCI-H23, in the assay on UACC-257 and with OVCAR-4 was > 100 µM (inactive) in each case. Besides, the GI50 in the assay on HOP-92 was > 100 µM (inactive).
As to `Cc1ccc2c(c1)C(C1Cc3c(C)cccc3C1=O)OC2=O` (configuration not stated), the GI50 was > 100 µM (inactive) in the assay with SN12C; > 100 µM (inactive) in the assay with EKVX; 91.6 µM (inactive) with SR; > 100 µM (inactive) in the assay with DU-145; 78 µM (inactive) in the assay on U-251; > 100 µM (inactive) with OVCAR-3. In addition, the GI50 in the assay on SK-MEL-28 is > 100 µM (inactive); in the assay on HOP-62 it was > 100 µM (inactive); with NCI-H522, > 100 µM (inactive); in the assay on SK-MEL-2 it was > 100 µM (inactive); in the assay on ACHN, > 100 µM (inactive); in the assay with BT-549 it was 86.5 µM (inactive). Also, the GI50 in the assay with SNB-75 is 87.7 µM (inactive); in the assay on MDA-MB-435, > 100 µM (inactive); in the assay on SW-620, > 100 µM (inactive); with NCI-H23 it was > 100 µM (inactive); with UACC-257, > 100 µM (inactive); with OVCAR-4, > 100 µM (inactive). Further, the GI50 with HOP-92 is > 100 µM (inactive).
As for `CCCn1c2ccccc2c2ccc3c(c21)C(=O)C=CC3=O`, the GI50 is 3.78 µM (inactive) in the assay with SN12C; > 5.32 µM (inactive) in the assay on EKVX; 0.719 µM (active) in the assay on SR; 9.79 µM (inactive) with DU-145; > 7.59 µM (inactive) in the assay on U-251; 2.01 µM (inactive) in the assay with OVCAR-3. The GI50 is 2.2 µM (inactive) in the assay with SK-MEL-28; > 10 µM (inactive) with HOP-62; 1.98 µM (inactive) in the assay with NCI-H522; > 4.78 µM (inactive) in the assay on SK-MEL-2; 1.83 µM (inactive) in the assay with ACHN; 2.21 µM (inactive) in the assay on BT-549. Besides, the GI50 was > 10 µM (inactive) with SNB-75; 2.3 µM (inactive) with MDA-MB-435; 1.16 µM (inactive) in the assay on SW-620; 2.58 µM (inactive) in the assay with NCI-H23; 1.78 µM (inactive) in the assay on UACC-257; 1.88 µM (inactive) in the assay on OVCAR-4. In addition, in the assay on HOP-92, the GI50 was 1.85 µM (inactive).
For the compound `O=c1c2ccccc2nc2sc(/N=C/C=C/c3ccccc3)nn12`, the GI50 with SN12C, in the assay with EKVX, in the assay with SR, in the assay with DU-145, with U-251 and with OVCAR-3 was > 100 µM (inactive) each time. Besides, the GI50 in the assay on SK-MEL-28, in the assay with HOP-62, in the assay with NCI-H522, in the assay with SK-MEL-2, in the assay on ACHN and in the assay on BT-549 was > 100 µM (inactive) throughout. Besides, the GI50 with SNB-75, in the assay with MDA-MB-435, in the assay with SW-620, in the assay with NCI-H23, in the assay on UACC-257 and in the assay on OVCAR-4 was > 100 µM (inactive) in each case. In addition, the GI50 with HOP-92 was > 100 µM (inactive).
On to `Nc1nccc(Nc2ccc(S(N)(=O)=O)cc2)n1`, for which the GI50 in the assay on SN12C, in the assay on EKVX, in the assay with SR, in the assay on DU-145, with U-251 and in the assay on OVCAR-3 was > 100 µM (inactive) throughout. The GI50 with SK-MEL-28, in the assay with HOP-62, in the assay with NCI-H522, in the assay on SK-MEL-2, in the assay with ACHN and in the assay on BT-549 was > 100 µM (inactive) in each case. For the same compound, the GI50 in the assay with SNB-75, in the assay with MDA-MB-435, in the assay with SW-620, in the assay on NCI-H23, in the assay on UACC-257 and with OVCAR-4 was > 100 µM (inactive) throughout. Moreover, the GI50 with HOP-92 was > 100 µM (inactive).
